Source: patent US20260199289A1, “USE OF GLYCOGEN METABOLISM INHIBITORS FOR THE TREATMENT OF CANCER” (THE UNIVERSITY OF VERMONT AND STATE AGRICULTURAL COLLEGE, priority 2022, published 2026)
Entries after “also recorded” stand apart in the source; their conditions may differ.

Assays:
8505C cells [1] = experiment: Glycogen content (colorimetric assay, TEM) in ATC cells; assay type: cell-based, human; conditions: for glycogen content: 8505C cells, overnight treatment
Protocol: Transmission Electron Microscopy of Glycogen Deposits—Cells were seeded in 10 cm dishes and allowed to adhere overnight. […] Cells were then rinsed with PBS and lifted with trypsin for preparation for TEM as described previously. Thwe et al., “Cell-intrinsic Glycogen Metabolism Supports Early Glycolytic Reprogramming Required for Dendritic Cell Immune Responses,” Cell Metabolism 26:558-567.e555 (2017), which is hereby incorporated by reference in its entirety.
PYGB RNA Interference—For validating successful PYGB knockdown, 4.0×10^4 cells were plated in 12 well plates containing 0.2% Lipofectamine™ 3000 Transfection Reagent and the indicated concentration of siRNA targeting PYGB or control siRNA in 1 ml CTM. RNA was extracted 72 hours later for RT-qPCR analysis and protein was extracted 96 hours later for immunoblotting. For measuring the effect of PYGB knockdown on cell viability, 1.0×10^3 cells were seeded in 96 well plates with 0.15% Lipofectamine™ 3000 Transfection Reagent and the indicated concentration of siRNA targeting PYGB or control siRNA in 200 μl CTM for 7 days before conducting the SRB assay. For measuring the effect of PYGB knockdown on glycogen content, 6.5×10^5 cells were seeded in 10 cm dishes with 0.2% Lipofectamine™ 3000 Transfection Reagent and the indicated concentration of siRNA targeting PYGB or control siRNA in 10 ml CTM for 4 days preceding cell lysis for glycogen determination.
Quantification of Levels of Glycogen, Glucose-1-Phosphate, Glucose-6-Phosphate, Lactate, ATP, Glucose, NADPH, and Glutathione—Briefly, cells were seeded in 10 cm dishes (for measuring glycogen and NADPH), 6 well plates (GIP, G6P, lactate, glucose, and glutathione), or 96 well plates (ATP) and allowed to adhere overnight. CTM was aspirated and cells were rinsed with PBS before application of compounds dissolved in CTM for 24 hours, at which point cells were ~90% confluent. CTM was then aspirated, cells were rinsed with PBS, and lysed according to the respective manufacturer protocol (see Table 4) for metabolite analysis.

8505C cells [2] = experiment: SRB cell viability assay in ATC cells; assay type: cell-based, human; conditions: 8505C ATC cells; indicated concentrations, 48 hours
Protocol: In Vitro Cell Staining for Measuring Drug Efficacy—Thyroid cells (4.0×10^3) were seeded in 96 well plates with 100 μl CTM and allowed to adhere overnight. 100 μl of CTM containing 2× concentration of compound was overlayed in each well for 48 hours unless otherwise indicated. Each well then received 100 μl of 10% w/v cold trichloroacetic acid (Fisher) and incubated at 4° C. for 1 hour to fix the cells. Each well was rinsed 3× with DI H2O and stained with 100 μl 0.057% w/v sulforhodamine B (SRB, Sigma-Aldrich) for 30 minutes at room temperature in the dark. Wells were washed 4× with 300 μl 1% v/v acetic acid (Fisher), and remaining SRB stain was solubilized with 200 μl of 10 mM Tris buffer, pH 10.5 (Fisher). Absorbance was measured at 564 nm with a Synergy 2 Multi-Detection Microplate Reader (Agilent Technologies) and normalized to a vehicle control. Drug synergy was evaluated using the coefficient of drug interaction (CDI) formula: CDI=AB/(A×B)×100, where AB is the percent remaining cells of an indicated combination treatment, A is the average percent remaining cells of agent 1 alone, and B is the average percent remaining cells of agent 2 alone. […] Hao et al., “Effect of Lumiracoxib on Proliferation and Apoptosis of Human Nonsmall Cell Lung Cancer Cells In vitro,” Chin Med J (Engl) 121:602-607 (2008), which is hereby incorporated by reference in its entirety. […]

cell lysates = conditions: cited from earlier work
purified GYS1 = target: T1, purified GYS1 (Homo sapiens, UniProt P13807); conditions: cited from earlier work
T1 sequence (P13807 1-737): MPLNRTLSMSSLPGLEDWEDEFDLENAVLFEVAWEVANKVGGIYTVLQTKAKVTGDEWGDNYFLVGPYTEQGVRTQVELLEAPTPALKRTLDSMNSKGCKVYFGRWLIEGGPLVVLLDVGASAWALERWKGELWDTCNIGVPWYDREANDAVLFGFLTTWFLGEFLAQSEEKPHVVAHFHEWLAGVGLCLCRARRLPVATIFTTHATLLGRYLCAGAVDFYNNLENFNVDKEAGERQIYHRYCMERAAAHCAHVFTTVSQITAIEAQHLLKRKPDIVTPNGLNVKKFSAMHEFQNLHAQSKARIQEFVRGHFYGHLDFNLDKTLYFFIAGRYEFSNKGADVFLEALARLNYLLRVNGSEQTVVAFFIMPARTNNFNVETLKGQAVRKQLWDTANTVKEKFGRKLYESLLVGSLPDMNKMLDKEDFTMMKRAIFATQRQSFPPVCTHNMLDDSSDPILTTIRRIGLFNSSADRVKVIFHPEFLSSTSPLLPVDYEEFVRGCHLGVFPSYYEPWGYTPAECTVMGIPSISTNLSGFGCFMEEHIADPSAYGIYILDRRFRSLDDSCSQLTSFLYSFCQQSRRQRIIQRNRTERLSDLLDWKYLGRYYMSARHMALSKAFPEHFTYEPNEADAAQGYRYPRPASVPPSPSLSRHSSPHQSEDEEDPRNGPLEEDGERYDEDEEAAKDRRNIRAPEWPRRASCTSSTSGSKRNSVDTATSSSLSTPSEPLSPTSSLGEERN

OCUT-2 cells = experiment: SRB cell viability assay in OCUT-2 cells; assay type: cell-based, human; conditions: indicated concentrations, 48 hours
Protocol: In Vitro Cell Staining for Measuring Drug Efficacy—Thyroid cells (4.0×10^3) were seeded in 96 well plates with 100 μl CTM and allowed to adhere overnight. 100 μl of CTM containing 2× concentration of compound was overlayed in each well for 48 hours unless otherwise indicated. Each well then received 100 μl of 10% w/v cold trichloroacetic acid (Fisher) and incubated at 4° C. for 1 hour to fix the cells. Each well was rinsed 3× with DI H2O and stained with 100 μl 0.057% w/v sulforhodamine B (SRB, Sigma-Aldrich) for 30 minutes at room temperature in the dark. Wells were washed 4× with 300 μl 1% v/v acetic acid (Fisher), and remaining SRB stain was solubilized with 200 μl of 10 mM Tris buffer, pH 10.5 (Fisher). Absorbance was measured at 564 nm with a Synergy 2 Multi-Detection Microplate Reader (Agilent Technologies) and normalized to a vehicle control. Drug synergy was evaluated using the coefficient of drug interaction (CDI) formula: CDI=AB/(A×B)×100, where AB is the percent remaining cells of an indicated combination treatment, A is the average percent remaining cells of agent 1 alone, and B is the average percent remaining cells of agent 2 alone. […] Hao et al., “Effect of Lumiracoxib on Proliferation and Apoptosis of Human Nonsmall Cell Lung Cancer Cells In vitro,” Chin Med J (Engl) 121:602-607 (2008), which is hereby incorporated by reference in its entirety.

[3] = tested on: mouse embryonic fibroblasts; conditions: cited from earlier work
[4] = cited from earlier work

| Compound | glycogen content (8505C cells [1]) | cell viability (SRB assay) (8505C cells [2]) | 14C-glucose incorporation (cell lysates) | inhibition of purified GYS1 (purified GYS1) | decrease of glycogen stores (8505C cells [1]; ATC cells, stated as comparable to the literature value) [%] | cell viability (SRB assay) (OCUT-2 cells) | decrease of glycogen stores [3] [%] | glycogen storage in rat brains [4] |
| --- | --- | --- | --- | --- | --- | --- | --- | --- |
| Oc1ccc(-c2c(-c3ccc(O)c(O)c3O)n[nH]c2C(F)(F)F)cc1 [yGsy2p-IN-1] | decrease glycogen content; also recorded: successfully reduced glycogen levels | limit ATC viability; also recorded: limited cell viability in ATC cells | decreased 14C-glucose incorporation in cell lysates | robustly inhibited purified GYS1 | – | – | – | – |
| COc1ccccc1O [guaiacol] | decrease | decrease ATC cell viability | – | – | ~50 | decrease ATC cell viability | 50 | – |
| CON(C)C(=O)[C@H](O)[C@H](Cc1ccccc1)NC(=O)c1cc2cc(Cl)ccc2[nH]1 [CP316819, 5-chloro-N-[(2S,3R)-3-hydroxy-4-[methoxy(methyl)amino]-4-oxo-1-phenylbutan-2-yl]-1H-indole-2-carboxamide] | increased the glycogen content | sensitive; also recorded: limited cell viability | – | – | – | – | – | enhanced glycogen storage in rat brains |
